Data reported in patent US20230115350A1 (Cedilla Therapeutics, Inc., priority 2021, published 2023).

Experiments:
His-Tev-Avi-TEAD1 = His-Tev-Avi-TEAD1 (Homo sapiens, UniProt P28347); assay: TEAD mass modification assay (iMS); assay type: binding; details: 50 μM compound, 1 hour, room temperature
Method: Compound stock (10 mM) was diluted to 2.5 mM with DMSO and His-Tev-Avi-TEAD1 was diluted to 5 μM with Reaction Buffer (50 mM Tris pH 8.0, 150 mM NaCl, and 1 mM TCEP). Compound (1 μL) is incubated with 49 μL protein at room temperature for 1 hour (final compound concentration was 50 μM). The sample (20 μL) was shipped on dry ice to MSBioworks for iMS analysis.
This assay confirms whether or not TEAD is covalently bound to a test compound (i.e., whether the protein's mass is modified). […] Compounds 80 (see FIG. 2), 89 (see FIG. 3), 73 (see FIG. 4), 53 (see FIG. 5), and 59 (see FIG. 6) were also tested in this fashion.

[1] = target: TEAD1 protein (YAP Binding Domain) (Homo sapiens, UniProt P28347); assay: TEAD1 lipid pocket compound displacement assay (TR-FRET, Cy5-probe); details: 60 minutes incubation at room temperature; TR-FRET 665 nm/620 nm; read-out: CDA IC50
Summary of the method: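 His-tagged TEAD1 YAP-binding domain pre-mixed with a Cy5-labelled lipid-pocket probe and Tb-anti-His antibody; compounds incubated with the complex 60 min at room temperature. TR-FRET read at 665/620 nm; IC50 from 4-parameter non-linear fit of probe displacement.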

NCI-H226 = assay: 72H TEAD Proliferation Assay (Cell Titer-Glo 2.0); assay type: cell-based; details: CTG 2.0, cell line not given
Method: The effect of TEAD inhibition on cell proliferation was assayed using Cell Titer Glo (CTG) 2.0 to measure response in mesothelioma cell lines NCI-H226 (ATCC, #CRL-5826) and NCI-H28 (ATCC, #CRL-5820).
The 72H TEAD Proliferation assay utilizes Cell Titer-Glo 2.0 (Promega, #G9243) to measure the proliferation of cells in the presence or absence of compound. Cell Titer-Glo 2.0 determines the amount of viable cells by quantifying ATP (an indication of metabolically active cells). It utilizes the conversion of Luciferin to Oxyluciferin and a luminescent signal with the use of ATP to report the quantity of viable cells in culture. Within cells that are continually growing, ATP is being synthesized to meet their metabolic demands, meanwhile the opposite is true for cells that are dying or slowing down their proliferation and either no longer using ATP or are using less, respectively. The NF2-deficient NCI-H226 has been genetically validated as a cell line that is sensitive to TEAD inhibition. The NF2-wild type NCI-H28 has been genetically validated as a cell line that is not sensitive to TEAD inhibition and grows independently of TEAD activity.
Compounds were screened against the responsive NCI-H226 cell line to assess the compounds' ability to inhibit TEAD and cell growth. Compounds were also screened against the non-responsive NCI-H28 cell line to ascertain whether the inhibition of cell growth was due to inhibition of the target TEAD or whether the inhibition was due to off-target cytotoxicity.
1) Assay ready plates (ARPs) were prepared by Echo acoustic liquid handler. For each compound, duplicate of 10-point half-log dilution series were dispensed in a 384-well microplate (Corning 3571).
5) NCI-H226 or NCI-H28 cells were harvested from culture in Assay Medium 1 and the multidrop Combi reagent dispenser was used to seed cells at 500 cells per 50 ul in each well of the ARPs and one Corning 3571 plate without compounds for Time 0 (TO) readout.
6) The TO plate was incubated for 2 hours at 37° C. with 5% CO2 to allow cells to settle, then the CTG Assay was performed.
7) All ARPs were incubated for 72 hours at 37° C. with 5% CO2, then the CTG Assay was performed for Time 72H (T72) readout.
8) CTG Assay: Bravo liquid handler (Agilent) was used to add 25 ul of CTG 2.0 to all columns of the plate except for Column 24, which was used to subtract out the background. After CTG addition, plates were placed on shaker at 800 RPM for 15 minutes at room temperature and kept in the dark. Luminescence was measured using EnVision multilabel plate reader with ultra-sensitive detection module.
9) Data Analysis: First background luminescence (no CTG wells) was subtracted from luminescence reading of all wells, then TO luminescence was subtracted from T72 luminescence. To compare anti-proliferative effect of compounds, GI50 was obtained by fitting dose response curves with nonlinear regression curve fit.

Chain of TEAD1 protein (YAP Binding Domain) (P28347 209-426 limits assumed): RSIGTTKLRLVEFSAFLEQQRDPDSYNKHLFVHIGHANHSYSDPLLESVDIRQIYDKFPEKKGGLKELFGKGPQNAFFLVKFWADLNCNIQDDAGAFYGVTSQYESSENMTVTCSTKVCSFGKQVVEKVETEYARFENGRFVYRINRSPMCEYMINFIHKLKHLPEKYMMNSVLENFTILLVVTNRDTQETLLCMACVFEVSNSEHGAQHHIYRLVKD
Chain of His-Tev-Avi-TEAD1 (P28347 209-426 limits assumed): as above

| SMILES | mass modification of TEAD1 (covalent binding) (His-Tev-Avi-TEAD1) | IC50 [1] [nM] | GI50 (NCI-H226; Homo sapiens, NCI-H226, 72 h) [nM] | mass of the protein treated with compound (His-Tev-Avi-TEAD1; untreated protein m/z 30,030.70) | GI50 (NCI-H226) [nM] |
| --- | --- | --- | --- | --- | --- |
| C=CC(=O)Nc1ccc(OCc2ccccc2Cl)c(F)c1 [Compound 53, N-(4-((2-chlorobenzyl)oxy)-3-fluorophenyl)acrylamide] | mass modification of TEAD1 | 500 to 2000 | 1000 to 3000 | – | – |
| C=CC(=O)Nc1ccc(OCC2CCC(F)(F)CC2)c(F)c1 [Compound 58, N-(4-((4,4-difluorocyclohexyl)methoxy)-3-fluorophenyl)acrylamide] | mass shift indicates modification of TEAD1 | ≤ 250 | 250 to 1000 | 30,344.29 m/z | – |
| C=CC(=O)Nc1ccc(Oc2cccc(C)c2)c(F)c1 [Compound 113, N-(3-fluoro-4-(m-tolyloxy)phenyl)acrylamide] | – | ≤ 250 | 1000 to 3000 | – | – |
| C=CC(=O)Nc1ccc(Oc2ccc(C)cc2)c(F)c1 [Compound 114, N-(3-fluoro-4-(p-tolyloxy)phenyl)acrylamide] | – | ≤ 250 | > 3000 | – | – |
| C=CC(=O)Nc1ccc(OCc2cccc(C(F)(F)F)n2)c(F)c1 [Compound 115, N-(3-fluoro-4-((6-(trifluoromethyl)pyridin-2-yl)methoxy)phenyl)acrylamide] | – | 250 to 500 | ≤ 250 | – | – |
| C=CC(=O)Nc1ccc(OCc2ccnc(C(F)(F)F)c2)c(F)c1 [Compound 116, N-(3-fluoro-4-((2-(trifluoromethyl)pyridin-4-yl)methoxy)phenyl)acrylamide] | – | 250 to 500 | 250 to 1000 | – | – |
| C=CC(=O)Nc1ccc(OCc2cc(C(F)(F)F)ccn2)c(F)c1 [Compound 117, N-(3-fluoro-4-((4-(trifluoromethyl)pyridin-2-yl)methoxy)phenyl)acrylamide] | – | 250 to 500 | 250 to 1000 | – | – |
| C=CC(=O)Nc1ccc(C2COc3ccccc3C2)c(F)c1 (centres unmarked) [Compound 120, N-(4-(chroman-3-yl)-3-fluorophenyl)acrylamide] | – | 250 to 500 | > 3000 | – | – |
| C=CC(=O)Nc1ccc(C2COc3ccccc3N2)c(F)c1 (centres unmarked) [Compound 121, N-(4-(3,4-dihydro-2H-benzo[b][1,4]oxazin-3-yl)-3-fluorophenyl)acrylamide] | – | 500 to 2000 | > 3000 | – | – |
| C=CC(=O)Nc1ccc(C2COc3ccccc3O2)c(F)c1 (centres unmarked) [Compound 122, N-(4-(2,3-dihydrobenzo[b][1,4]dioxin-2-yl)-3-fluorophenyl)acrylamide] | – | ≤ 250 | > 3000 | – | – |
| C=CC(=O)Nc1ccc(OC(C)c2cccc(F)c2)c(F)c1 (centres unmarked) [Compound 124, N-(3-fluoro-4-(1-(3-fluorophenyl)ethoxy)phenyl)acrylamide] | – | 250 to 500 | > 3000 | – | – |
| CN(C)C/C=C/C(=O)Nc1ccc(OCc2cccc(F)c2)c(F)c1 [Compound 125, (E)-4-(dimethylamino)-N-(3-fluoro-4-((3-fluorobenzyl)oxy)phenyl)but-2-enamide] | – | > 2000 | > 3000 | – | – |
| C=C=CC(=O)Nc1ccc(OCc2cccc(F)c2)c(F)c1 [Compound 126] | – | ≤ 250 | 1000 to 3000 | – | – |
| C=CC(=O)Nc1cnc(OCc2cccc(F)c2)c(F)c1 [Compound 129, N-(5-fluoro-6-((3-fluorobenzyl)oxy)pyridin-3-yl)acrylamide] | – | 250 to 500 | > 3000 | – | – |
| C=CC(=O)Nc1cc2nc(CCC(C)C)oc2cc1F [Compound 132, N-(6-fluoro-2-isopentylbenzo[d]oxazol-5-yl)acrylamide] | – | 250 to 500 | ≤ 250 | – | – |
| C=CC(=O)Nc1cc2nc(CC3CC3)oc2cc1F [Compound 134, N-(2-(cyclopropylmethyl)-6-fluorobenzo[d]oxazol-5-yl)acrylamide] | – | > 2000 | 1000 to 3000 | – | – |

| SMILES | mass modification of TEAD1 (covalent binding) (His-Tev-Avi-TEAD1) | IC50 [1] [nM] | GI50 (NCI-H226; Homo sapiens, NCI-H226, 72 h) [nM] | mass of the protein treated with compound (His-Tev-Avi-TEAD1; untreated protein m/z 30,030.70) | GI50 (NCI-H226) [nM] |
| --- | --- | --- | --- | --- | --- |
| C=CC(=O)Nc1cc2nc(C3CCC(F)(F)CC3)oc2cc1F [Compound 135, N-(2-(4,4-difluorocyclohexyl)-6-fluorobenzo[d]oxazol-5-yl)acrylamide] | – | 500 to 2000 | – | – | ≤ 250 |
| C=CC(=O)Nc1cc2nc(CC3CCC(F)(F)CC3)oc2cc1F [Compound 136, N-(2-((4,4-difluorocyclohexyl)methyl)-6-fluorobenzo[d]oxazol-5-yl)acrylamide] | – | 250 to 500 | 250 to 1000 | – | – |
| C=CC(=O)Nc1cc2nc(Cc3ccccc3)oc2cc1F [Compound 137, N-(2-benzyl-6-fluorobenzo[d]oxazol-5-yl)acrylamide] | – | 250 to 500 | > 3000 | – | – |
| C=CC(=O)Nc1cc2nc(C3CCC(F)(F)CC3)oc2cc1F [Compound 138, N-(2-(4,4-difluorocyclohexyl)-6-fluorobenzo[d]oxazol-5-yl)acrylamide] | – | 250 to 500 | – | – | 1000 to 3000 |
| C=CC(=O)Nc1cc2nc(CCC(F)(F)C(F)(F)F)oc2cc1F [Compound 140, N-(6-fluoro-2-(3,3,4,4,4-pentafluorobutyl)benzo[d]oxazol-5-yl)acrylamide] | – | ≤ 250 | ≤ 250 | – | – |
| C=CC(=O)Nc1ccc2oc(CCCC(C)C)nc2c1F [Compound 141, N-(4-fluoro-2-(4-methylpentyl)benzo[d]oxazol-5-yl)acrylamide] | – | 250 to 500 | 250 to 1000 | – | – |
| C=CC(=O)Nc1cc2nc(Cc3ccc(F)cc3)oc2cc1F [Compound 142, N-(6-fluoro-2-(4-fluorobenzyl)benzo[d]oxazol-5-yl)acrylamide] | – | 500 to 2000 | 1000 to 3000 | – | – |
| C=CC(=O)Nc1cc2nc(CC(C)(C)C)oc2cc1F [Compound 143, N-(6-fluoro-2-neopentylbenzo[d]oxazol-5-yl)acrylamide] | – | 500 to 2000 | 250 to 1000 | – | – |
| C=CC(=O)Nc1cc2nc(CCC(F)(F)F)oc2cc1F [Compound 144, N-(6-fluoro-2-(3,3,3-trifluoropropyl)benzo[d]oxazol-5-yl)acrylamide] | – | > 2000 | 250 to 1000 | – | – |
| C=CC(=O)Nc1cc2nc(CC3CC3C)oc2cc1F (centres unmarked) [Compound 145, N-(6-fluoro-2-((2-methylcyclopropyl)methyl)benzo[d]oxazol-5-yl)acrylamide] | – | 250 to 500 | ≤ 250 | – | – |
| C=CC(=O)Nc1ccc2c(c1)OC(c1cccc(C(F)(F)F)c1)O2 (centres unmarked) [Compound 146, N-(2-(3-(trifluoromethyl)phenyl)benzo[d][1,3]dioxol-5-yl)acrylamide] | – | ≤ 250 | ≤ 250 | – | – |
| C=C(F)C(=O)Nc1ccc2c(c1)OC(c1cccc(C(F)(F)F)c1)O2 (centres unmarked) [Compound 148, 2-fluoro-N-(2-(3-(trifluoromethyl)phenyl)benzo[d][1,3]dioxol-5-yl)acrylamide] | – | 500 to 2000 | 250 to 1000 | – | – |
| C=C(F)C(=O)Nc1ccc(OCC2CCC(F)(F)CC2)c(F)c1 [Compound 149, N-(4-((4,4-difluorocyclohexyl)methoxy)-3-fluorophenyl)-2-fluoroacrylamide] | – | 250 to 500 | ≤ 250 | – | – |
| C=CC(=O)Nc1ccc(-c2ccc(C(F)(F)F)cc2)c2ncccc12 [Compound 150, N-(8-(4-(trifluoromethyl)phenyl)quinolin-5-yl)acrylamide] | – | ≤ 250 | ≤ 250 | – | – |
| C=CC(=O)Nc1ccc(-c2ccc(C(C)(C)C)cc2)c2ncccc12 [Compound 151, N-(8-(4-(tert-butyl)phenyl)quinolin-5-yl)acrylamide] | – | 250 to 500 | ≤ 250 | – | – |
